Reference: ChEMBL document CHEMBL4819052, “Structure-Based Approaches to Improving Selectivity through Utilizing Explicit Water Molecules: Discovery of Selective β-Secretase (BACE1) Inhibitors over BACE2” (J Med Chem, 2021)

assay: Dissociation constant, pKa of compound by capillary electrophoresis; type: physicochemical

Row | pKa | SMILES
1 | 8.3 | CC#C[C@@]1(c2cc(NC(=O)c3ccc(C#N)cn3)ccc2F)CCOC(N)=N1
2 | 7.5 | CC#C[C@]1(c2cc(NC(=O)c3cnc(OCF)cn3)ccc2F)N=C(N)OCC12CC(F)(F)C2
3 | 8.4 | CC#C[C@@]1(c2cc(NC(=O)c3cnc(OCF)cn3)ccc2F)CCOC(N)=N1
4 | 6.5 | CC#C[C@]1(c2cc(NC(=O)c3cnc(OCF)cn3)ccc2F)N=C(N)OC[C@@H]1F
